Measured values from patent publication US20220354858A1, “METHOD FOR TREATING MALIGNANT TUMOR” (TAIHO PHARMACEUTICAL CO., LTD., priority 2019, published 2022).
Several values for one entry are separate records, joined by “and”; a condition that tells them apart may be missing. Equal entries are not always repeated. Where two headings read alike, the source gives them in different places.

Columns and labels:
[1] = Dose escalation (3+3 design) to determine recommend dose and administration schedule in humans; type: in vivo, human; settings: oral once a day, patients with advanced solid cancers
Protocol: This test was performed to determine the recommend dose and administration schedule of Compound 1 and investigate the safety profile of Compound 1 for patients with advanced solid cancers for which standard treatment options are not available.
In this Example, first, the recommend doses for the schedule of administration for 7 consecutive days and the schedule of 4-administration with 3-withdrawal were determined. In the schedule of administration of Compound 1 for 7 consecutive days, Compound 1 was orally administered consecutively once a day for three courses for a total duration of 21 days, with one course taken as 7 days. In 4-administration with 3-withdrawal, Compound 1 was orally administered once a day on day 1 to day 4, day 8 to day 11, and day 15 to day 18 of three courses for a total duration of 21 days, with one course taken as 7 days.
In the schedule of administration for 7 consecutive days, the administration amount taken at one time started at 4 mg/body/day. […]
In the present invention, the 3+3 design was performed in the following manner. […] Whether the level proceeds is determined by the investigator and the sponsor based on comprehensive considerations of not only the information on DLTs, but also all related toxicities regardless of whether they are DLTs, and drugs used in combination/combination therapy from a clinical perspective. […]

[2] = Pharmacokinetics of Compound 1 in humans; type: in vivo, human; settings: for Blood concentration remaining before administration: 24 mg/body/day, 4-administration with 3-withdrawal
Protocol: The pharmacokinetics of the recommend doses of Compound 1 in administration for 7 consecutive days and 4-administration with 3-withdrawal were measured in patients with advanced solid cancers for which standard treatment options were not available.
In the administration for 7 consecutive days, Compound 1 was orally administered once a day at a dose of 16 mg/body/day for three courses for a total duration of 21 days, with one course taken as 7 days. Blood samples were taken over time on day 1 and day 21, which was the last administration day of the three courses, to measure the pharmacokinetics.
In the 4-administration with 3-withdrawal, Compound 1 was orally administered once a day at a dose of 24 mg/body/day for three courses for a total duration of 21 days, with one course taken as 7 days. Blood samples were taken over time on day 1 and day 18, which was the last administration day of the three courses, to measure the pharmacokinetics. Blood samples were also taken immediately before administration on day 3, day 4, and day 8.

advanced solid cancers = assay: Optimal dosage regimen study in humans: safety (non-prescribed withdrawal) and efficacy (RECIST) profiles; type: in vivo, human; settings: for Non-prescribed withdrawal: N = 6
Protocol: With regard to Example 3, the optimal dosage regimen of Compound 1 was studied. The safety profiles and efficacy profiles when the recommend doses were administered in the schedule of administration for 7 consecutive days and the schedule of 4-administration with 3-withdrawal were compared in patients with advanced solid cancers for which standard treatment options were not available.
For the safety profiles, non-prescribed withdrawal periods were compared. The non-prescribed withdrawal period is a comprehensive index of safety profiles.
In this Example, dose modification criteria in the case of the occurrence of a toxicity for which a causal relationship to the drug cannot be denied were shown. Dose modification criteria for non-hematologic toxicities, dose modification criteria for hematologic toxicities, and dose modification criteria for other toxicities were set. When any of these criteria was met, a prescribed day to perform drug administration was changed to a day on which the drug is not administered, i.e., a non-prescribed withdrawal period.
The dose modification criteria for non-hematologic toxicities for which a causal relationship to the drug cannot be denied were set as follows.
With regard to fasting blood glucose, if symptomatic grade 4 hyperglycemia or grade 3 or higher hyperglycemia for more than 7 days develops, the administration is discontinued (non-prescribed withdrawal). If the condition recovers to grade 1 or grade 0, the administration can be resumed. When the administration is resumed, the administration amount is reduced by one level from the original administration amount. However, for adverse events (e.g., fatigue and skin dryness) that are judged to be less likely to become serious or worsen to life-threatening events, the administration of the drug can be continued at the same administration amount without dose reduction or administration discontinuation, regardless of the grades of the events.
In the case of DLTs or grade 3 or higher non-hematologic toxicities as other toxicities, the administration is discontinued (non-prescribed withdrawal). If the condition recovers to grade 1 or less or to the baseline, the administration can be resumed. As grade 3 or higher non-hematologic toxicities, grade 3 nausea and/or vomiting that could be treated by intensive antiemetic therapy, grade 3 diarrhea in which an antidiarrheal was effective, and grade 3 skin toxicity that could be treated by intensive skin treatment with, for example, a topical steroid and/or an oral corticosteroid are excluded. When the administration is resumed, the administration amount is reduced by one level from the original administration amount. However, for adverse events (e.g., fatigue and skin dryness) that are judged to be less likely to become serious or worsen to life-threatening events, the administration of the drug can be continued at the same administration amount without dose reduction or administration discontinuation, regardless of the grades of the events.
The dose modification criteria for hematologic toxicities for which a causal relationship to the drug cannot be denied were set as follows.
If the neutrophil count is less than 500/mm^3, the administration is discontinued (non-prescribed withdrawal). If the neutrophil count recovers to 1500/mm^3 or more, the administration can be resumed. […] In the case of asymptomatic neutropenia lasting more than 7 days or neutropenia with a symptom (neutropenia with an infectious disease or fever), the administration amount is reduced by one level from the original administration amount.
If the platelet count is less than 25000/mm^3, the administration is discontinued (non-prescribed withdrawal). If the platelet count recovers to 75000/mm^3 or more, the administration can be resumed. When the administration is resumed, the administration amount is reduced by one level from the original administration amount. […]

[3] = mice; cited from earlier work
[4] = system: Human ovarian cancer cell line OVCAR-3; assay: Administration schedule study in nude mouse model subcutaneously transplanted with OVCAR-3; type: in vivo; settings: OVCAR-3 xenograft, FIG. 1
Protocol: Human ovarian cancer cell line OVCAR-3 (American Type Culture Collection (ATCC)) that had been subcutaneously subcultured in mice was cut to about 2 mm squares and subcutaneously transplanted into 5-week-old […] BALB/cAJcl-nu/nu mice (CLEA Japan, Inc.) using a transplantation needle.
The grouping day was defined as Day 1.
The tumor volume (TV) was calculated using the following formula.
TV=(major axis×minor axis×minor axis)×½
Requisite amounts of Compound 1 were weighed, and each was individually suspended in a 0.5% (w/v) hydroxypropyl methylcellulose (HPMC) aqueous solution to prepare administration liquids having appropriate concentrations. For the control group, a 0.5% (w/v) HPMC aqueous solution was used as an administration liquid.
The administration amount was 10 mL/kg body weight, and each administration liquid was individually injected into the stomach of the mice with a feeding needle.
Twice a week, the major axis and the minor axis of each tumor were measured from the skin with an electronic caliper, and the following items were further calculated. These were used as indexes to confirm the presence or absence of an antitumor effect.
Tumor volume (TVn)=(major axis×minor axis×minor axis)×½ […]
On the same days as the tumor volume measurement, the body weight (BW) of the mice was measured with an electronic balance, and the body weight change (BWC) was further calculated. […]

[5] = humans; cited from earlier work
[6] = 4-administration with 3-withdrawal, 24 mg/body/day
[7] = administration for 7 consecutive days, 16 mg/body/day

In the case of C[C@]1(O)C[C@@](N)(c2ccc(-c3nc4n(c3-c3ccccc3)COc3ccncc3-4)cc2)C1 [Compound 1, trans-3-amino-1-methyl-3-(4-(3-phenyl-5H-imidazo[1,2-c]pyrido[3,4-e][1,3]oxazin-2-yl)phenyl)cyclobutanol], the “Maximum tolerable administration amount (recommend dose)” value ([1]; 4-administration with 3-withdrawal) is reported as 24 mg/body/day, the “Maximum tolerable administration amount (recommend dose)” value ([1]; administration for 7 consecutive days) is reported as 16 mg/body/day and the “Accumulation (blood drug concentrations day 21 or day 18 versus day 1)” value ([2]; 16 mg/body/day 7 consecutive days and 24 mg/body/day 4-administration with 3-withdrawal) is reported as “has accumulation properties”. The “Blood concentration remaining before administration” value ([2]; day 3) was 25.7 ng/mL, the “Blood concentration remaining before administration” value ([2]; day 4) was 35.7 ng/mL and the Half-life ([2]; human, blood, humans, oral) was ~49 h. For the same compound, the Non-prescribed withdrawal period (advanced solid cancers; [6]) was 2 days and 2.0 days, the Non-prescribed withdrawal (advanced solid cancers; [6]) was “one of six patients and 1/6” and the RECIST evaluation (advanced solid cancers; 4-administration with 3-withdrawal, 24 mg/body/day, six patients) was “two of the six patients had stable disease (SD)”. For the same compound, the RECIST evaluation (advanced solid cancers; [7]) was “all of the patients had progressive disease (PD)”, the Non-prescribed withdrawal (advanced solid cancers; [7]) was “three of six patients and 3/6” and the Non-prescribed withdrawal period (advanced solid cancers; administration for 7 consecutive days, 16 mg/body/day, average) was 3.7 days. For the same compound, the “Tumor shrinkage effect (waterfall plots), 4-administration with 3-withdrawal versus 7 consecutive days” value (advanced solid cancers; recommend doses, FIG. 4) was “superior”, the Half-life [3] was “about 2.3 hours” and the Body weight change ([4]; each Compound 1 administration group) was “without serious weight loss”. The “Antitumor effect (RTV, T/C)” value ([4]; oral 16 or 24 mg/kg/day 7 consecutive days or 24 mg/kg/day 4-administration with 3-withdrawal, Days 1-21) was “excellent antitumor effect”.

For AZD5363, the Half-life [5] is listed as “about 6 hours”.
